From patent publication US8846704B2, “Thiopyrimidine-based compounds and uses thereof” (YM Biosciences Austraila Pty Ltd, priority 2007, dated 2014)

How the values were obtained:
Assay type in all cases: biochemical
[1] = target: T1, Bmx(h) (Homo sapiens, UniProt P51813); assay: Upstate KinaseProfiler enzyme assay, Bmx; details: 500 nM compound; read-out: Percent inhibition at 500 nM Bmx(h)
T1 construct: purchased Upstate Biotechnology (Dundee, UK), KinaseProfiler service
T1 sequence (P51813 1-675): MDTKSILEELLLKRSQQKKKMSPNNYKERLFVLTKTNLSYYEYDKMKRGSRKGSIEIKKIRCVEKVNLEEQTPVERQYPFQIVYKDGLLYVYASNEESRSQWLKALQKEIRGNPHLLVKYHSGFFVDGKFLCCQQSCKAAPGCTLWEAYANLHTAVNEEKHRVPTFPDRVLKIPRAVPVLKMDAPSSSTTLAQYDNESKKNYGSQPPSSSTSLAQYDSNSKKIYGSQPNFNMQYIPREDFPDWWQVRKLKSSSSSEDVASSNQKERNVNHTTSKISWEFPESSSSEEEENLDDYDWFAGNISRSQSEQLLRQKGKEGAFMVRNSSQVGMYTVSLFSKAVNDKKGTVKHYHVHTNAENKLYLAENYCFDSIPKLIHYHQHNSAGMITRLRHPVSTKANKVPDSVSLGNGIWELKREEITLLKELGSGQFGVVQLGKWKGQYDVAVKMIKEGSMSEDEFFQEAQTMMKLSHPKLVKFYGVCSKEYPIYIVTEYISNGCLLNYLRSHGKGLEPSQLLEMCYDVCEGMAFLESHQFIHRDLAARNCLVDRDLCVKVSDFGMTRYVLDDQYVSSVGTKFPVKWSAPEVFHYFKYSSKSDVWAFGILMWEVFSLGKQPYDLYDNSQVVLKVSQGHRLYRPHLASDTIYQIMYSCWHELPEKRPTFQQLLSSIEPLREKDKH
Outline: (§1)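 Kinase diluent: MOPS 20 mM (pH 7.0), EDTA 1 mM, β-ME 0.1%, Brij-35 0.01%, glycerol 5%, BSA 1 mg/ml; enzymes made up at 10× working strength. Substrates dissolved and diluted in deionised water.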

[2] = target: T2, BTK(h) (Homo sapiens, UniProt Q06187); assay: Upstate KinaseProfiler enzyme assay, BTK; details: 500 nM compound; read-out: Percent inhibition at 500 nM BTK(h)
T2 construct: purchased Upstate Biotechnology (Dundee, UK), KinaseProfiler service
T2 sequence (Q06187 whole entry): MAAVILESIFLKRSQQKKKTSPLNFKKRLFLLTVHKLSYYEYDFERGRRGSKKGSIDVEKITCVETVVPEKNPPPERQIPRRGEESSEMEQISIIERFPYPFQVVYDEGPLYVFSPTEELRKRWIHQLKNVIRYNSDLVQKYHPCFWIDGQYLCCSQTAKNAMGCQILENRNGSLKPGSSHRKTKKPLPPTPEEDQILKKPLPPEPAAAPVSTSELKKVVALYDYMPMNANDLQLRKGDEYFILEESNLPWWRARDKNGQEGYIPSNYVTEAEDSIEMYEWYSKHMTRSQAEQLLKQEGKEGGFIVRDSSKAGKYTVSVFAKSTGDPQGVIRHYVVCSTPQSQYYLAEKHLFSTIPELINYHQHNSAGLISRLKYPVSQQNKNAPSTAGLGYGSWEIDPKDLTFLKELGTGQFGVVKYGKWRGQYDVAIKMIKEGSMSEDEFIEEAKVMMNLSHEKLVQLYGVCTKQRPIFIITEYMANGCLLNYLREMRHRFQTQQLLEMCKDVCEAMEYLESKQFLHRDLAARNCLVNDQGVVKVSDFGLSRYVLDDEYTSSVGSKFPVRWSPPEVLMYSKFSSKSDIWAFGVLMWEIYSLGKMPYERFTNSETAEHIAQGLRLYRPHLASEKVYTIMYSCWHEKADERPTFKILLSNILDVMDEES
Outline: as §1

[3] = target: T3, Flt 1(h) (Homo sapiens, UniProt P17948); assay: Upstate KinaseProfiler enzyme assay, Flt 1; details: 500 nM compound; read-out: Percent inhibition at 500 nM Flt 1(h)
T3 construct: purchased Upstate Biotechnology (Dundee, UK), KinaseProfiler service
T3 sequence (P17948 27-1338): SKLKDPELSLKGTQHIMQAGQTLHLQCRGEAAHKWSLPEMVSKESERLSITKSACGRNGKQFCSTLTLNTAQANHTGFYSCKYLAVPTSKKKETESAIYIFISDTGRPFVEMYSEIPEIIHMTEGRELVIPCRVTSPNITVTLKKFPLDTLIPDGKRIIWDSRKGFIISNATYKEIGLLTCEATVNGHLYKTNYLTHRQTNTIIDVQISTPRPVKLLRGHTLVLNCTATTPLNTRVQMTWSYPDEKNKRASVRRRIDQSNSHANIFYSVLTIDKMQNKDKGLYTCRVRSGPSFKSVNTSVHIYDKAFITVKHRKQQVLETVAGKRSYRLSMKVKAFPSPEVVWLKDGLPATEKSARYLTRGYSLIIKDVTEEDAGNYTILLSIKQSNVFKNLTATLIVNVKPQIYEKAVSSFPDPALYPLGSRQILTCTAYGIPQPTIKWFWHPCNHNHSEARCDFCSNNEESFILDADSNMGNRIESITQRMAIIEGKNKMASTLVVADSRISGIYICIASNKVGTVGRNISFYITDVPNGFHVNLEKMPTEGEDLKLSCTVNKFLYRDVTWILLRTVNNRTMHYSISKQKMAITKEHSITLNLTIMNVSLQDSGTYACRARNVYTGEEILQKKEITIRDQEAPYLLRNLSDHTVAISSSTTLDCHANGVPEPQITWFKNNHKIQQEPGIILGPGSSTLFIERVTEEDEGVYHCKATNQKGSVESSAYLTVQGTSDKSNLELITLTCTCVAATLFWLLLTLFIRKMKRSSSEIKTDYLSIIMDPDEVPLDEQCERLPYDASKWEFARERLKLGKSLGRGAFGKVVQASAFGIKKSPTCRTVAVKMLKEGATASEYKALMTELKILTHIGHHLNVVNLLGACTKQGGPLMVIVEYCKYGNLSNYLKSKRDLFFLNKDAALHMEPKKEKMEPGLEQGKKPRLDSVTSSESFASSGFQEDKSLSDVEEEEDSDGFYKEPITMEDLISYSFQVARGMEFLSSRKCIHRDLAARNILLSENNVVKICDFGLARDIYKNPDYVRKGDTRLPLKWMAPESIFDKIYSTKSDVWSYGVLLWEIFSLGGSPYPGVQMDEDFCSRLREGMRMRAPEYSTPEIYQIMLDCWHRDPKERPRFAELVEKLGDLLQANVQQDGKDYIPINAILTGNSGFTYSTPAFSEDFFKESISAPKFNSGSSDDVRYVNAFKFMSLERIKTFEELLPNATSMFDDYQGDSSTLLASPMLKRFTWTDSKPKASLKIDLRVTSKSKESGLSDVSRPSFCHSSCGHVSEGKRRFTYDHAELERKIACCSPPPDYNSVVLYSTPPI
Outline: as §1

[4] = target: T4, Flt 4(h) (Homo sapiens, UniProt P35916); assay: Upstate KinaseProfiler enzyme assay, Flt 4; details: 500 nM compound; read-out: Percent inhibition at 500 nM Flt 4(h)
T4 construct: purchased Upstate Biotechnology (Dundee, UK), KinaseProfiler service
T4 sequence (P35916 25-1363): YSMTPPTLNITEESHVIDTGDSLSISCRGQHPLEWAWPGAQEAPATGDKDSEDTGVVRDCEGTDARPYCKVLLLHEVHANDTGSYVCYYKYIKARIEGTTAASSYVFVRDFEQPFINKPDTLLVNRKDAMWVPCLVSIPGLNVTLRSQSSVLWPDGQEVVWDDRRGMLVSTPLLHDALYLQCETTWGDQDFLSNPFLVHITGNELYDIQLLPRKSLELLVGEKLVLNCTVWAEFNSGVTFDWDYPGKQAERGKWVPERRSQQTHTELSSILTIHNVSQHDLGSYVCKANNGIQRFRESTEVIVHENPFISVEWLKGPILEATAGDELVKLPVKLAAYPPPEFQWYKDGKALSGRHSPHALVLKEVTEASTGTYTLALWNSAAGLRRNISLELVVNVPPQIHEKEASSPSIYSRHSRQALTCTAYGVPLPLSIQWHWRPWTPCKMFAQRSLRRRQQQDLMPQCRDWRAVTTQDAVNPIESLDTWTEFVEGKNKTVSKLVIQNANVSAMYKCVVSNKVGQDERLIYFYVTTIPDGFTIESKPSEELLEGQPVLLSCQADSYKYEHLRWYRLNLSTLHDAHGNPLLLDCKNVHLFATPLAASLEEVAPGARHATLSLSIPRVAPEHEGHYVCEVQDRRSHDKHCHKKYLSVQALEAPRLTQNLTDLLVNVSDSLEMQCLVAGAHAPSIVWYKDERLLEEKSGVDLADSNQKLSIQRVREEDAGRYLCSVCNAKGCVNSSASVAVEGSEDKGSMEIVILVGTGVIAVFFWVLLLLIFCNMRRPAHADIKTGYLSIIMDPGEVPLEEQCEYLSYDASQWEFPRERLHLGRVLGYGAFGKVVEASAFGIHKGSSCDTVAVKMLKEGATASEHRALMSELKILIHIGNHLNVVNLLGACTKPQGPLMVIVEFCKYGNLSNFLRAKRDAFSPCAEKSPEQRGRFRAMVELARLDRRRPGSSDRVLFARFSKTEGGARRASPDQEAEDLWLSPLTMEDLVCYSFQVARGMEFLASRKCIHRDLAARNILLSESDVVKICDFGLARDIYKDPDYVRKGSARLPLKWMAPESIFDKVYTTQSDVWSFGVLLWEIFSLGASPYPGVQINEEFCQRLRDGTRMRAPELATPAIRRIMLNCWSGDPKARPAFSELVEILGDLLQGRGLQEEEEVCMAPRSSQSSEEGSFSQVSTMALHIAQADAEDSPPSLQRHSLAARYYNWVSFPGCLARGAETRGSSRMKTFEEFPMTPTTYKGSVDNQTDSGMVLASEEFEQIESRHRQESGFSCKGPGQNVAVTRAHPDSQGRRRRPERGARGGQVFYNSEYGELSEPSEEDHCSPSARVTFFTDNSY
Outline: as §1

SMILES | inhibition at 0.5 µM [1] [%] | inhibition at 0.5 µM [2] [%] | inhibition at 0.5 µM [3] [%] | inhibition at 0.5 µM [4] [%]
C=CC(=O)Nc1ccc(Sc2ccnc(Nc3ccc(C#N)cc3)n2)cc1 [Compound 131, N-(4-(2-(4-cyanophenylao)pyrimidin-4-ylthio)phenyl)acrylamide] | 100 | 100 | – | –
C=CC(=O)Nc1ccc(Sc2nc(Nc3ccc(N4CCOCC4)cc3)ncc2-c2ccccc2)cc1 [Compound 307, N-(4-(2-(4-morpholinophenylao)-5-phenylpyrimidin-4-ylthio)phenyl)acrylamide] | 29 | – | 19 | 93
C=CC(=O)Nc1ccc(Sc2ccnc(Nc3cccc(C(=O)OC)c3)n2)cc1 [Compound 356, methyl 3-(4-(4-acrylamidophenylthio)pyrimidin-2-ylao)benzoate] | 100 | 100 | – | –
C=CC(=O)Nc1cccc(Sc2ccnc(Nc3ccc(OC)cc3)n2)c1 [Compound 120, N-(3-(2-(4-methoxyphenylao)pyrimidin-4-ylthio)phenyl)acrylamide] | 100 | 100 | – | –
Cc1cnc(Nc2ccc(N3CCOCC3)cc2)nc1Sc1ccc(N)cc1 [Compound 126, 4-(4-aophenylthio)-5-methyl-N-(4-morpholinophenyl)pyrimidin-2-ae] | 78 | – | 93 | 99
CC#CC(=O)Nc1ccc(Sc2nc(Nc3ccc(N4CCOCC4)cc3)ncc2C)cc1 [Compound 125, N-(4-(5-methyl-2-(4-morpholinophenylao)pyrimidin-4-ylthio)phenyl)but-2-ynamide] | 100 | 100 | – | –
C=CC(=O)Nc1ccc(Sc2ccnc(Nc3ccc(N4CCS(=O)(=O)CC4)cc3)n2)cc1 [Compound 99, N-{4-[(2-{[4-(1,1-dioxo-1λ^6,4-thiomorpholin-4-yl)phenyl]ao}pyrimidin-4-yl)sulfanyl]phenyl}prop-2-enamide] | 100 | 100 | – | –
CC(=O)Nc1ccc(Sc2nc(Nc3ccc(N4CCOCC4)cc3)ncc2C)cc1 [Compound 135, N-(4-(5-methyl-2-(4-morpholinophenylao)pyrimidin-4-ylthio)phenyl)acetamide] | 58 | – | 96 | 99
C=CC(=O)Nc1ccc(Sc2ccnc(Nc3ccccc3)n2)cc1 [Compound 350, N-(4-(2-(phenylao)pyrimidin-4-ylthio)phenyl)acrylamide] | 100 | 100 | – | –
C=CC(=O)Nc1ccc(Sc2ccnc(Nc3ccc(OC)cc3)n2)cc1 [Compound 74, N-(4-(2-(4-methoxyphenylao)pyrimidin-4-ylthio)phenyl)acrylamide] | 100 | 100 | – | –
C=CC(=O)Nc1ccc(Sc2ccnc(Nc3ccc(Cl)cc3)n2)cc1 [Compound 353, N-(4-(2-(4-chlorophenylao)pyrimidin-4-ylthio)phenyl)acrylamide] | 100 | 100 | – | –
C=CC(=O)Nc1cc(C)c(Sc2nc(Nc3ccc(N4CCOCC4)cc3)ncc2C)c(C)c1 [Compound 164, N-(3,5-dimethyl-4-(5-methyl-2-(4-morpholinophenylao)pyrimidin-4-ylthio)phenyl)acrylamide] | 87 | – | 44 | 97
C=CC(=O)Nc1ccc(Sc2ccnc(Nc3cccc(S(N)(=O)=O)c3)n2)cc1 [Compound 364, N-(4-(2-(3-sulfamoylphenylao)pyrimidin-4-ylthio)phenyl)acrylamide] | 73 | – | 97 | 99
CC#CC(=O)Nc1ccc(Sc2ccnc(Nc3ccc(N4CCOCC4)cc3)n2)cc1 [Compound 104, N-(4-(2-(4-morpholinophenylao)pyrimidin-4-ylthio)phenyl)but-2-ynamide] | 100 | 73 | – | –
C=CC(=O)Nc1ccc(Sc2ccnc(Nc3ccc(N4CCOCC4)cc3)n2)c(Cl)c1C [Compound 161, N-(3-chloro-2-methyl-4-(2-(4-morpholinophenylao)pyrimidin-4-ylthio)phenyl)acrylamide] | 100 | 100 | – | –
C=CC(=O)Nc1ccc(Sc2ccnc(Nc3ccc(OC)c(O)c3)n2)cc1 [Compound 97] | 100 | 100 | – | –
C=CC(=O)Nc1ccc(Sc2nc(Nc3ccc(N4CCC(C(=O)OCC)CC4)cc3)ncc2C)cc1 [Compound 292, ethyl 1-(4-(4-(4-acrylamidophenylthio)-5-methylpyrimidin-2-ylao)phenyl)piperidine-4-carboxylate] | 59 | 3 | 67 | 100
C=CC(=O)Nc1ccc(Sc2ccnc(Nc3cccc(OC)c3)n2)cc1 [Compound 105, N-(4-(2-(3-methoxyphenylao)pyrimidin-4-ylthio)phenyl)acrylamide] | 100 | 100 | – | –
C=CC(=O)Nc1ccc(Sc2ccnc(Nc3ccc(F)c(C#N)c3)n2)cc1 [Compound 354, N-(4-(2-(3-cyano-4-fluorophenylao)pyrimidin-4-ylthio)phenyl)acrylamide] | 100 | 100 | – | –
C=CC(=O)Nc1ccc(Sc2ccnc(Nc3ccc(C(=O)OC)cc3)n2)cc1 [Compound 357, methyl 4-(4-(4-acrylamidophenylthio)pyrimidin-2-ylao)benzoate] | 48 | – | 76 | 99
C=CC(=O)Nc1ccc(Sc2ccnc(Nc3ccc(S(N)(=O)=O)cc3)n2)cc1 [Compound 352, N-(4-(2-(4-sulfamoylphenylao)pyrimidin-4-ylthio)phenyl)acrylamide] | 100 | 100 | – | –
C=CC(=O)Nc1ccc(Sc2ccnc(Nc3ccc(N4CCC(N5CCCC5)CC4)cc3)n2)cc1 [Compound 87, N-(4-(2-(4-(4-(pyrrolidin-1-yl)piperidin-1-yl)phenylao)pyrimidin-4-ylthio)phenyl)acrylamide] | 100 | 100 | – | –
C=CC(=O)Nc1ccc(Sc2nc(Nc3ccc(CNS(C)(=O)=O)cc3)ncc2C)cc1 [Compound 294, N-(4-(5-methyl-2-(4-(methylsulfonamidomethyl)phenylao)pyrimidin-4-ylthio)phenyl)acrylamide] | 92 | 77 | 94 | 100
C=CC(=O)Nc1ccc(Sc2ccnc(Nc3cccc(C#N)c3)n2)cc1 [Compound 118, N-(4-(2-(3-cyanophenylao)pyrimidin-4-ylthio)phenyl)acrylamide] | 100 | 100 | – | –
